Test results: patent US12558345B2, “CHK1/2 inhibitors for use in the treatment of neuroblastomas and/or soft tissue sarcomas” (Eli Lilly and Company, priority 2015, dated 2026)
Structures can show the parent of a compound that is named as a salt.

Tests used:
[1] = test system: G2M DNA damage checkpoint (pHH3) in HeLa cells; experiment: Doxorubicin-Induced G2M Checkpoint Abrogation HeLa Cell-Based Acumen Assay; conditions: Homo sapiens, 125 nM doxorubicin 24 hours, compound seven hours, Relative EC50
Method: An inhibitor of CHK1 will disable the G2M DNA damage checkpoint in p53-minus tumor cells treated with the topoisomerase II inhibitor, doxorubicin. A measurement of G2M checkpoint abrogation is the phosphorylation of histone H3 on serine 10 that occurs after cells traverse the G2M checkpoint and enter mitosis. The following high content imaging assay can be used to measure the phosphorylation of histone H3 in cells. HeLa cells (purchased from ATCC) are cultured in MEM Media (Gibco™) supplemented with 10% (v/v) FBS and plated at 2000 cells per well in poly D-lysine coated clear bottom black plates (BD Biocoat Cat #3504640), 100 μL volume per well. Plates are then incubated in a cell culture incubator for 18-24 hours (37° C., 5% CO2 and 95% relative humidity). […] Plates are scanned with ACUMEN EXPLORER™ Laser-scanning fluorescence microplate cytometers using 488 nm excitation (TTP LABTECH LTC) to measure pHH3 and DNA content including 2 N, and 4 N. The pHH3 positive cells are identified by mean intensity at 519 nm from Alexa 488. […] The final readout for each population is determined by normalizing to the % of total cells producing a final assay output of % pHH3, %2 N and %4 N. 100% activity is then determined by treating cells with the maximum concentration of an inhibitor control compound at 100 nM to determine the final % activity of each compound. […]

[2] = test system: HT-29 colon tumor xenograft; experiment: Human Tumor Xenograft Models, with gemcitabine: HT-29; assay type: in vivo, mouse
Method: The ability of CHK1 inhibitors to effect tumor killing can be determined in vivo using the Calu-6 lung and HT-29 colon tumor xenograft efficacy models. Calu-6 lung cancer cells (ATCC) are cultured in growth media (MEM w/ Earle's salts (Invitrogen) with L-glutamine (Gibco™) supplemented with 10% (v/v) heat inactivated FBS (Gibco™), 1×MEM non-essential amino acids (Gibco™), 1×sodium pyruvate (Gibco™)) and HT-29 colon cancer cells (ATCC) are cultured in growth media, (McCoy's 5A medium (Gibco™) supplemented with 10% FBS (Gibco™)) and expanded. Cells are harvested and washed twice with phosphate buffered saline and 5×10^6 cells (HT-29) or 1×10^6 cells (Calu-6) in growth media (without serum) are mixed with equal volume of BD Matrigel™ matrix (BD Bioscience, Franklin, NJ), then injected subcutaneously into the flank of nude mice (CD-1 nu/nu, from Charles River Labs, Wilmington, MA). At about day 16 after implant (150-200 mm^3), gemcitabine is formulated fresh in saline daily and administered to animals by intraperitoneal route at 60 mg/kg dose. […] Tumor response is determined by tumor volume measurement performed twice a week during the course of treatment. Tumor growth inhibition (TGI) is calculated as the percent reduction in mean tumor size of a compound treated group from the mean tumor size of the vehicle-treated control group.

[3] = test system: RD, SJCRH30, Saos-2 and RD-ES cell lines; experiment: In Vitro Response of Pediatric Cell Lines (western blot); assay type: cell-based; conditions: 24 hours at 5 and 50 nM
Method: Cellular lysates can be obtained from embryonal and alveolar rhabdomyosarcoma (RD and SJCRH30, respectively), osteosarcoma (Saos-2), and Ewing's sarcoma (RD-ES) cell lines treated with 5-(5-(2-(3-aminopropoxy)-6-methoxyphenyl)-1H-pyrazol-3-ylamino)pyrazine-2-carbonitrile methanesulfonic acid monohydrate (Example 5) for 24 hours at 5 and 50 nM final concentration.
A western blot can be run using the cellular lysates described above. […] Higher levels of DNA damage can be observed with CHK1 inhibition. Accordingly, the levels of gammaH2AX, a signal for DNA damage, increase upon treatment with 5-(5-(2-(3-aminopropoxy)-6-methoxyphenyl)-1H-pyrazol-3-ylamino)pyrazine-2-carbonitrile methanesulfonic acid monohydrate (Example 5).

Structure (SMILES)	EC50 [1] [nM]	increase in tumor growth inhibition over gemcitabine alone ([2]; HT-29, combination with gemcitabine)	anti-tumor activity ([2]; HT-29, dosed alone and in combination with gemcitabine 60 mg/kg ip, compound iv +24 hours, Q3Dx4)	CHK1 protein levels [3]	levels of gammaH2AX (signal for DNA damage) [3]	levels of phospho-AKT [3]	phospho-CHK1 (S345) levels [3]	levels of phospho-ERK 1/2 (T202/Y204) ([3]; RD-ES non-responding)	phospho-hnRNP-C levels ([3]; unaffected in the RD-ES cell line)
COc1cccc(OCCCN)c1-c1cc(Nc2cnc(C#N)cn2)n[nH]1 [Example 2, 5-(5-(2-(3-Aminopropoxy)-6-methoxyphenyl)-1H-pyrazol-3-ylamino)pyrazine-2-carbonitrile dihydrogen chloride salt]	10.5	up to a six-fold increase	excellent dose dependent anti-tumor activity						
COc1cccc(OCCCN)c1-c1cc(Nc2cnc(C#N)cn2)n[nH]1 [Example 5, 5-(5-(2-(3-Aminopropoxy)-6-methoxyphenyl)-1H-pyrazol-3-ylamino)pyrazine-2-carbonitrile methanesulfonic acid monohydrate]				do not change	increase	do not appear to change	increase	increase in three out of four cell lines	increase
